In PMC12169663, “Deciphering the Tumor Uptake of Heterobivalent (SST2/Albumin) [^64Cu]Cu-NODAGA-cLAB-TATEs” (Journal of Medicinal Chemistry, 2025):
*1 amine or outer side, *2 acyl side, *3 side chain or, on linkers, in order; H or OH if unused. Where a SMILES comes first, the peptide text is derived from it. Bridges are numbered along the chain shown (N, C = ends). [ ]: non-standard residue; d: D form. The star is where a group is joined. Ala(1-(4-CO-Ph)triazol-4-yl) = O=C([C@H](Cc1cn(-c2ccc(C(=O)[*:3])cc2)nn1)N[*:1])[*:2]; X1 = O=C(O)CN1CCN(CC(=O)O)CCN([C@H](CCC(=O)*)C(=O)O)CC1; X2 = Cc1ccc(CCCC(=O)NCCCC[C@H](N*)C(N)=O)cc1; AEEA = NCCOCCOCC(=O)O

Legend:
[1] = Plasma stability assay, mouse plasma; format: in vitro ADME
Text: Previously, we discovered that the ^64Cu-labeled NODAGA-cLAB-TATEs with a primary amide functionality within the albumin-binding moiety are subject to a metabolic transformation in mouse plasma. In fact, the primary amide is slowly hydrolyzed to the carboxylic acid, which turned out to be catalyzed by plasma carboxylesterases as proven by blocking this transformation in the presence of bis-para-nitrophenylphosphate. […] As this transformation entails also an increase in the binding affinity to albumin, there might be effects on the biodistribution in mice, in particular the blood circulation time. To investigate this, NODAGA-cLAB6-TATE was designed, with cLAB6 (N3Bz-D-Lys(MPB)-NH2) representing the D-configured pendant of cLAB4 (N3Bz-L-Lys(MPB)-NH2). […] However, the apparent half-lives for both compounds (≈13 and >24 h) are longer compared to the half-lives previously determined for [ ^ 64 Cu]-Cu-NODAGA-cLAB3-TATE and [ ^ 64 Cu]-Cu-NODAGA-cLAB4-TATE (≈6 and ≈3 h, respectively). For better comparability, the stability of [ ^ 64 Cu]-Cu-NODAGA-cLAB4-TATE was again examined with the same mouse plasma batch used for [ ^ 64 Cu]-Cu-NODAGA-cLAB5-TATE and [ ^ 64 Cu]-Cu-NODAGA-cLAB4- scr TATE. […] Therefore, the discrepancy with our previously reported stability data in mouse plasma might result from differences in the activity of plasma carboxylesterases in the obtained mouse plasma. However, the rate of amide hydrolysis is indeed lower for [ ^ 64 Cu]-Cu-NODAGA-cLAB4- scr TATE, independent of the mouse plasma batch, which might indicate that the actual amino acid sequence in these peptides affects the recognition by the plasma carboxylesterases.
2 Stability of the ^64Cu-labeled TATE derivatives in mouse plasma. (A) Radio-HPLC chromatograms of [^64Cu]-Cu-NODAGA-cLAB5-TATE (red), [^64Cu]-Cu-NODAGA-cLAB6-TATE (green), and [^64Cu]-Cu-NODAGA-cLAB- scr TATE (blue) after ^64Cu-labeling and incubation in mouse plasma for 24 h show the transformation of [^64Cu]-Cu-NODAGA-cLAB5-TATE and [^64Cu]-Cu-NODAGA-cLAB4- scr TATE into a metabolite of higher retention time (see the Discussion for explanation). (B) Plot of residual intact radioligands upon incubation with mouse plasma including nonlinear regression (black line) according to one-phase decay for [^64Cu]-Cu-NODAGA-cLAB5-TATE (red circles). The dotted lines represent fractions of 0.5 and 0.9. Data shown are mean values (±SD) from 1 to 3 experiments (each experiment was performed in single execution). […]
Plasma stability of the radioligands was done as previously described for NODAGA-cLAB-TATE and NODAGA-NES-TATEs. , Briefly, an aliquot of the radioligand was added to plasma and stability was assessed at different time points by withdrawing an aliquot, followed by protein precipitation and analysis by radio-HPLC.

HSA = HSA (Homo sapiens, UniProt P02768); assay: Estimation of Kd[HSA] from structure-activity relationships of the isolated cLABs
Text: Table S1: Comparison of estimated and determined Kd[HSA] values for the 64Cu-labeled TATE derivatives bearing an albumin […]
predicted determinedi predict./determ. cLAB1 R1-pentanoyl-D-Lys(IPB)-OH 8.0a 3.1j 2.6 cLAB2 R1-benzoyl-L-Lys(IPB)-OH 0.36b 1.8j 0.2 cLAB3 R1-benzoyl-L-Lys(IPB)-NH2 7.9c 9.2j 0.9 […]
cLAB4-scrTATE R1-benzoyl-L-Lys(MPB)-NH2 66d 42 1.6 a Represents the Kd value of the albumin binder (R)-1e (5-N3-pentanoyl-D-Lys(IPB)-OH).1 b Represents the Kd value of the albumin binder (S)-1f (4-N3-benzoyl-L-Lys(IPB)-OH).1 c Calculated using the Kd value of the respective carboxylic acid ((S)-1f) and a factor of 22, which is the factor between Acetyl-L-Lys(IPB)-OH ((S)-1c) an Acetyl-L-Lys(IPB)-NH2 ((S)-2a).1 […]
f Calculated using the Kd value of the respective carboxylic acid ((S)-1f) and the factors of 22 (carboxylic acid → carboxamide) and 2.2 (L → D configuration, factor between (S)-1c and (R)-1c).1 g Represents the Kd value determined for the non-radioactive compound using the fluorescence-based competition […]
h Compound names were abbreviated. i Determined using the radiometric ultrafiltration assay described in the main article. j Previously determined by us.1

[2] = Small-animal PET imaging in subcutaneous MPC tumor allograft model; settings: female, NMRI-nu/nu (Rj:NMRI-Foxn1nu/nu), mouse, iv, total radioactivity
Method: (§1) The biodistribution of [ ^ 64 Cu]­Cu-NODAGA-cLAB­(5/6)-TATE, [ ^ 64 Cu]­Cu-NODAGA-cLAB4- scr TATE, and [ ^ 64 Cu]­Cu-DOTA-EB-TATE was assessed in a subcutaneous MPC tumor allograft model via small-animal PET imaging (Figure A–D). The time-activity curves (TACs) for tumor, kidneys, and heart are shown in Figure A–D (for TACs of muscle and liver, see Figure S6) and the calculated areas under curves (AUC0–48h) and tumor-to-tissue ratios are graphically summarized in Figure E,F, respectively.
(§2) (A–D) Time-activity curves (SUV, decay-corrected, as a function of time up to 48 h) obtained by PET acquisition are depicted (0–2 h in dynamic mode and time points 5, 24, and 48 h p.i.; the x-axes are segmented accordingly). Data shown are mean values (±SD) of a group of MPC tumor-bearing NMRI-nu/nu mice (n = 2, but for cLAB6-TATE n = 4). […] (E) Calculated AUC0–48h values. Data shown are mean values (±SD). (F) Tumor/organ ratios based in the AUC0–48h values.
(§3) A number of 4 × 10^6 MPC cells were resuspended in 40 μL of Dulbecco’s phosphate-buffered saline and injected subcutaneously into the shoulder of 7–10-week-old female nude mice (Rj:NMRI-Foxn1^nu/nu, Janvier Laboratories, Le Genest-Saint-Isle, France). General anesthesia was induced and maintained with inhalation of 10% (v/v) desflurane in 30% oxygen/air (v/v). Tumor growth was monitored using caliper measurements. Animals were sacrificed using CO2 inhalation and cervical dislocation. When diameters of MPC tumors reached 8 ± 3 mm (volumes of 65–282 mm^3), small-animal positron emission tomography (PET) was performed using the nanoScan PET/CT (Mediso Medical Imaging Systems, Budapest, Hungary) and Si78 PET/CT (BRUKER, Billerica, MA) instruments. Scanners were cross-calibrated using a syringe source containing 10 MBq of [^64Cu]­CuCl2 diluted in 2 mL of 0.01 M HCl. Each mouse (n = 2) received between 7 and 10 MBq of the respective radioligand (A m = 40 GBq/μmoL) delivered in 0.154 M NaCl via intravenous injection through a tail vein catheter within the initial 30 s after scan start. […] Standardized uptake values (SUV = [MBq detected activity/mL tissue]/[MBq injected activity/g body weight]) were determined in defined volumes of interest (VOIs) and reported as VOI-averaged SUVmean ± range [min–max]. Assuming a density of 1 g/mL for body tissues, the SUVs become dimensionless.

[3] = system: MPC tumor-bearing NMRI-nu/nu mice; assay: as above
Method: as §1, §2, §3

HSA, sequence (P02768 25-609): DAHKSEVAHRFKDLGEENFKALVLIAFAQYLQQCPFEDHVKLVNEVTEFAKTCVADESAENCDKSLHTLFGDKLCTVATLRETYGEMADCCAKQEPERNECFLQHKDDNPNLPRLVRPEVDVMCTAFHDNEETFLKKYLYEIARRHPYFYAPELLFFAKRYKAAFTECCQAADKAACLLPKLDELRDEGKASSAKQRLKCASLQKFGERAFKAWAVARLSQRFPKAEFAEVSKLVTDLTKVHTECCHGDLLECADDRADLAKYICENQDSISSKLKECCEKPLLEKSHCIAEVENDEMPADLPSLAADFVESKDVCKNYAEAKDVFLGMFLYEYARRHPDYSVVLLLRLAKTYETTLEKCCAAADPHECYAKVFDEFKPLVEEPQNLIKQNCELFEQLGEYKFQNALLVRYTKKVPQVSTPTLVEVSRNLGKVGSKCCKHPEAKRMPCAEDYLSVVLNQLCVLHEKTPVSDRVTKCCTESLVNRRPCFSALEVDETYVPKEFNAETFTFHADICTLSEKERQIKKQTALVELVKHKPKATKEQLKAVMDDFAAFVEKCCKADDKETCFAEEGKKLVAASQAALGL

half-life ([1]; 37 °C, up to 24 h, single experiment, read-out: t1/2 (plasma), mouse): > 24 h
hydrolysis of the primary amide in mouse plasma ([1]; 24 h, radio-HPLC): hydrolyzed
Ratio Kd predict./determ. (HSA): 1.6
SUV at 24 h ([2]; muscle): 0.04 SUV
SUV at 24 h ([2]; tumor): 0.49 SUV
integral tumor uptake relative to [64Cu]Cu-NODAGA-cLAB4-TATE ([3]; AUC0–48h): less than 10%
AUC0-48h heart ([3]; PET, i.v., 7–10 MBq/animal): 41.09 SUVmean*h
AUC0-48h kidney ([3]; PET, i.v., 7–10 MBq/animal): 59.26 SUVmean*h
AUC0-48h liver ([3]; PET, i.v., 7–10 MBq/animal): 25.84 SUVmean*h
AUC0-48h tumor ([3]; PET, i.v., 7–10 MBq/animal): 25 SUVmean*h
AUC0-48h tumor ([3]; PET, i.v., 7–10 MBq/animal, listed as cLAB4-scrTATE): 25.35 SUVmean*h
AUC0–48h muscle ([3]; mouse, in vivo): 5.5 SUVmean*h
integral tumor uptake, fold lower than [64Cu]Cu-NODAGA-TATE ([3]; mouse, in vivo): 6 fold
integral tumor uptake, fold lower than [64Cu]Cu-NODAGA-cLAB4-TATE ([3]; mouse, in vivo): 11 fold
Compound: Cc1ccc(CCCC(=O)NCCCC[C@H](NC(=O)c2ccc(-n3cc(C[C@H](NC(=O)CC[C@H](C(=O)O)N4CCN(CC(=O)O)CCN(CC(=O)O)CC4)C(=O)NCCOCCOCC(=O)N[C@@H](CCCCN)C(=O)N[C@H]4CSSC[C@@H](C(=O)N[C@H](C(=O)O)[C@@H](C)O)NC(=O)[C@@H](Cc5c[nH]c6ccccc56)NC(=O)[C@@H](Cc5ccccc5)NC(=O)[C@H]([C@@H](C)O)NC(=O)[C@H](Cc5ccc(O)cc5)NC4=O)nn3)cc2)C(N)=O)cc1 [[64Cu]Cu-NODAGA-cLAB4-scrTATE, metal not drawn] (X1-[Ala(1-(4-CO-Ph)triazol-4-yl)](X2)[AEEA]KCYT[dF][dW]CT-OH; disulfide 4-9)
